Data: US7186879B2, “Screening systems and methods for identifying modulators of xenobiotic metabolism” (Baylor College of Medicine, priority 2001, dated 2007)
“Also recorded” adds a separate entry of the source.

Tests used:
[1] = tested on: CYP2E1, CYP1A2, CYP3A11, GSTPi; test: Northern blot of APAP metabolizing genes in liver of wild-type and CAR null mice; conditions: for suppression of CYP2E1 and induction of CYP1A2, CYP3A11, GSTPi: CAR null mice; for CYP1A2 mRNA / CYP2E1 mRNA levels / CYP3A11 mRNA / GSTPi mRNA: wild-type animals, three days pretreatment
Experimental: CAR (+/+) or CAR (−/−) animals pretreated with phenobarbital (PB), TCPOBOP (TC), or vehicle alone were administered a 250 mg/kg dose of APAP by intraperitoneal injection (n=5–7 per treatment group) (FIG. 11A). […] Liver sections from different treatments were examined by histological staining (FIG. 11B). Liver samples from all treated animals were analyzed but only representative histology is presented. […] CAR (+/+) or CAR (−/−) animals were pretreated with PB, TCPOBOP (TC), or vehicle alone for three days (FIG. 11C). […] Liver samples treated as indicated were collected two hours after APAP and GSH levels were measured (n=5–7) (FIG. 11D).
CAR (+/+) and CAR (−/−) animals were given 250 mg/kg, 500 mg/kg, or 800 mg/kg doses of APAP, respectively (FIG. 12A). […] Total liver RNA was prepared from 500 mg/kg APAP treated CAR (+/+) and CAR (−/−) livers at 0 and 2 hours as indicated. […] The same blot was stripped and re-probed with β-actin as loading control.
For histologic examination of the treated mice, the left lobe of the livers was removed and immediately fixed in 4% formaldehyde-PBS solution, embedded in paraffin, sectioned at 5 μm, and stained with hematoxylin and eosin. Samples were examined under a light microscope. For RNA studies, total RNA was extracted using TRIzol Reagent (Invitrogen Life Technologies, Carlsbad, Calif.) according to the manufacture's instruction. Equivalent amount of RNA from 3–5 mice were pooled and 10 μg of each sample was subjected to northern blot analysis. […] Hepatic non-protein thiol was measured as an indication of hepatic GSH content. Mice were sacrificed two hours after intraperitoneal injection with APAP. […] Supernatant (0.5 ml) was mixed with 1.5 ml 0.1 mM Ellman's reagent [5,5′-dithio-bis(2-nitrobenzoic acid)] […] Absorbance was read at 412 nm using GSH solutions as quantitative standards.

[2] = target: T1, human CAR (Homo sapiens, UniProt Q14994); test: CYP2B10 mRNA induction in humanized CAR mice lacking murine CAR; conditions: mice expressing only human CAR in liver, 24 hours
T1 sequence (Q14994 1-348 isoform Q14994-2): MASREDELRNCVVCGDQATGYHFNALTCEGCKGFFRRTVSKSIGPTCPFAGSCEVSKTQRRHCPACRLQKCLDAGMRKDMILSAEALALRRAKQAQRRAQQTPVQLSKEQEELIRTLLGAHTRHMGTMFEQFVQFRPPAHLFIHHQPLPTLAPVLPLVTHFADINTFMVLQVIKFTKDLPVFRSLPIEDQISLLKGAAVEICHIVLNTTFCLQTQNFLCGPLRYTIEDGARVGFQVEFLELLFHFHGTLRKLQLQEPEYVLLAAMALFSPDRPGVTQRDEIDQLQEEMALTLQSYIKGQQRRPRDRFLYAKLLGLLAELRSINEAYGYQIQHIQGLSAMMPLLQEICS
Experimental: Total RNA was prepared from the livers of the individual mice, and CYP2B10 mRNA expression was assessed by Northern blotting.
Mice heterozygous for the murine CAR gene mutation and lacking the human CAR transgene express only murine CAR. […] Mice homozygous for the murine CAR gene mutation and carrying the human CAR transgene express only human CAR in the liver.

[3] = tested on: hepatocytes; test: Hepatocyte proliferation (BrdU incorporation); assay type: in vivo, mouse; conditions: wild-type animals
Experimental: FIG. 3B is a set of pictures of PB-treated, TCPOBOP-treated, or control mice that were treated with BrdU for two hours before their liver tissues were harvested.
To determine the proliferation of hepatocytes following PB or TCPOBOP treatment, mice pretreated with corn oil, PB, or TCPOBOP received a single intraperitoneal dose of BrdU/FdU (2 ml/100 g, Amersham). Mice were sacrificed approximately 2 hours after BrdU administration. BrdU incorporation was determined using a mouse anti-BrdU monoclonal antibody (DAKO Corporation) and Vectastain ABC Kit (Vector Laboratories Inc.) (FIG. 3B), using standard procedures.

[4] = target: T2, murine CAR receptor (Mus musculus, UniProt O35627, M138L); conditions: cited from earlier work
T2 sequence (O35627 1-358 M138L): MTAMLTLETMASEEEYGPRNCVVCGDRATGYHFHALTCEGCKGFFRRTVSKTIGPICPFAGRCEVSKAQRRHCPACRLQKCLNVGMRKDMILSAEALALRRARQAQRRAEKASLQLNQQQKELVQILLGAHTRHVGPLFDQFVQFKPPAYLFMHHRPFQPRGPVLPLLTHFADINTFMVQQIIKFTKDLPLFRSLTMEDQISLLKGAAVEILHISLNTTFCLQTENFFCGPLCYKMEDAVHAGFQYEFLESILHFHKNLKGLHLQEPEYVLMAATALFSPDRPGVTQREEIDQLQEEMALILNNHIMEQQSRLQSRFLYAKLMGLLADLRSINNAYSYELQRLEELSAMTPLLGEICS

[5] = tested on: wild-type and CAR −/− mice; conditions: acute treatment (Heubel et al.); cited from earlier work
[6] = tested on: wild-type and CAR −/− mice; test: Liver enlargement (liver mass relative to body weight); assay type: in vivo, mouse; conditions: for hyperplasia or hypertrophy in the liver: CAR knockout mice; for liver mass: three days of treatment
Experimental: FIG. 3A is a bar graph showing the liver enlargement and hepatocyte proliferation by PB or TCPOBOP. Mice (8–10 weeks old) were treated with PB or TCPOBOP for 3 days, and then both liver mass and body weight were measured. The data is presented as percentage of liver mass relative to total body weight.
This hepatomegaly is thought to be a reflection of both cellular hypertrophy and mitogenesis.

[7] = tested on: CYP2B10; test: In situ hybridization of CYP2B10 in small intestine; conditions: for CYP2B10 expression in the small intestine: 3 days treatment; for number of grains per cell, with or without treatment: CAR −/− animals; for number of grains per cell, with or without treatment / number of grains per cell, treated versus untreated: small intestine
[8] = target: T1, human CAR; test: Sensitivity of CAR humanized mice to APAP, serum ALT; design: expressed in transfected cells; host or cells: liver of transgenic C57BL/6 mice (line 6210, albumin promoter), crossed onto the murine CAR -/- background; conditions: CAR humanized mice pretreated three days, APAP 250 mg/kg
Experimental: FIG. 13 illustrates the sensitivity of CAR humanized mice to APAP. CAR humanized mice (n=3) were pretreated with phenobarbital (PB) or vehicle alone for three days and administered a 250 mg/kg dose of APAP by intraperitoneal injection. Serum was collected and alanine aminotransferase (ALT) levels were measured after 24 hours.

[9] = target: T1, human CAR; test: Northern blot of gene induction in CAR humanized mice; conditions: CAR humanized animals
Experimental: CAR humanized mice (n=3) were treated with 500 mg/kg APAP or vehicle. After two hours, total liver RNA was prepared and subjected to Northern blot analysis with indicated probes.

| Compound | suppression of CYP2E1 and induction of CYP1A2, CYP3A11, GSTPi [1] | CYP1A2 mRNA [1] | CYP2E1 mRNA levels [1] | CYP3A11 mRNA [1] | GSTPi mRNA [1] | induction of CYP2B10 mRNA [2] | BrdU-positive hepatocytes [3] | activity on murine CAR receptor [4] | increase in liver mass relative to total body mass [5] | hyperplasia or hypertrophy in the liver [6] | liver mass ([6]; CAR −/− mice) | liver mass ([6]; wild-type mice) | CYP2B10 expression in the small intestine ([7]; CAR knockout mice) | number of grains per cell, with or without treatment [7] | CYP2B10 expression in the small intestine ([7]; wild-type mice) | number of grains per cell, treated versus untreated ([7]; wild-type mice) | sensitivity to APAP [8] | expression of CYP1A2 and CYP3A11 mRNAs [9] |
| --- | --- | --- | --- | --- | --- | --- | --- | --- | --- | --- | --- | --- | --- | --- | --- | --- | --- | --- |
| Clc1cnc(Oc2ccc(Oc3ncc(Cl)cc3Cl)cc2)c(Cl)c1 [TCPOBOP, 1,4-bis[2-(3,5-dichloropyridyloxy)]benzene] | Neither the suppression of CYP2E1 nor the induction of the other enzymes was observed | induced | modestly suppressed | induced | induced | did not respond; also recorded: not by TCPOBOP | presence of BrdU-positive hepatocytes | agonist ligand; also recorded: activate murine CAR | up to 2 fold | not detected | did not show any evidence of increased liver mass | increase in liver mass | not detected | not significantly different | induced CYP2B10 expression | approximately two-fold higher | – | – |
| CCC1(c2ccccc2)C(=O)NC(=O)NC1=O [PB, phenobarbital] | Neither the suppression of CYP2E1 nor the induction of the other enzymes was observed | induced | modestly suppressed | induced | induced | induction of CYP2B10 mRNA; also recorded: induces a CAR target gene | presence of BrdU-positive hepatocytes | – | – | not detected | did not show any evidence of increased liver mass | increase in liver mass | not detected | not significantly different | induced CYP2B10 expression | approximately two-fold higher | increased sensitivity to APAP | induced expression |
